# Data from patent US8455460B2, “Cosmetic composition containing one or more compounds of the β-(1,3)-glucuronan or β-(1,3)-glucoglucuronan type” (Greentech, priority 2007, dated 2013).
# Tests used:
# human fibroblasts = assay: transcriptomic study on human fibroblasts cultivated in vitro in the absence or presence of the compounds; type: cell-based; conditions: cellular renewal
# Excerpt: The biological activities of β-(1,3)-glucuronan compounds or of a mixture of β-(1,3)-glucoglucuronan compounds were screened by an original method of molecular biology (transcriptomic technique) and then detected by methodologies used conventionally in cosmetology.
# This adipokine produced locally in the adipose tissue inhibits the activity of the enzyme lipoprotein lipase (LPL) thus preventing the transfer of fatty acids from the lipoproteins to the adipocytes, thus greatly reducing lipogenesis. At the same time, this adipokine activates the enzyme ATGL (adipose triglyceride lipase), present in the adipocytes, thus greatly increasing lipolysis and the release of fatty acids from the adipocytes.
# In fact, the transitory induction (under the control of TFPI2 and of PDGFD) of the metalloproteinases (MMP) and the transitory inhibition (under the control of TFPI2) of HAPLN1, permit transitory, localized destabilization of the stressed site (requiring cicatrization) of the extracellular matrix, mainly by catabolic action on the collagen fibers. […]
# adipocytes = assay: in-vitro study on adipocytes: density of fatty acids stored as triglycerides in the lipid vacuoles; type: cell-based; conditions: concentration of 0.5%
# [1] = clinical study on human volunteers, daily topical application of cream (cellulite, orange-peel skin); type: in vivo; conditions: cream containing 3%, daily topical application for 30 days, placebo 27%
# Excerpt: The orange-peel skin effect is reduced in 53% of the volunteers (against 27% in the group of volunteers treated with a placebo).
# [2] = chelation and sequestration of cationic ions, investigated by atomic absorption; type: physicochemical; conditions: Na+, Cu+, Cu2+, Ca2+, Mg2+, Zn2+, with stirring, compounds recovered and washed
# Excerpt: The β-(1,3)-glucuronan compounds or the mixture of β-(1,3)-glucoglucuronan compounds are polyanionic molecules capable of chelating and of sequestering mono- and divalent cationic ions.
substance,measurement,setting,value
"β-(1,3)-D-polyglucuronic acid [β-(1,3)-glucuronan compound]",expression of TFPI2,human fibroblasts,overexpressed
same,"expression of the genes EGR1, PTGS2, PDGFD, NPTX1",human fibroblasts,overexpression
same,decrease in the density of fatty acids stored in the form of triglycerides in the lipid vacuoles of the adipocytes,adipocytes,~25%
same,volunteers in whom the orange-peel skin effect is reduced,[1],53%
same,chelating and sequestering of mono- and divalent cationic ions,[2],chelate and sequester
